Patent US20030083385A1, “Use of benzenesulfonyl (thioureas or ure as) for treating of septic shock or gene ralized inflammatory syndrome” (priority 2001, published 2003)
Structures can show the parent of a compound that is named as a salt.

How the values were obtained:
[1] = test system: anesthetized pigs infused continuously with lipopolysaccharide (LPS); assay: Endotoxin (LPS) model in anesthetized pigs, continuous LPS infusion; assay type: in vivo, pig
Source text: (§1) The suitability of a compound of formula I for treating pathological changes in blood pressure associated with septic shock or occurring in the generalized inflammatory syndrome (SIRS) state can be established, for example, in the pharmacological model in the pig that is described further below (endotoxin model, synonym: LPS model (LPS=lipopolysaccharide)). The effect can also be examined, for example, in rats, mice, cats, guinea pigs, rabbits, dogs or monkeys.
Anesthetized pigs were infused continuously with lipopolysaccharide (LPS) (0.15 μg/kg/h; n=7). This led to a decrease in the peripheral resistance. After 3.9 hours, 1-(5-(2-(5-chloro-2-methoxybenzamido)ethyl)-2-(2-methoxyethoxy)phenyl-sulfonyl)-3-methylthiourea sodium salt was administered at a dose of 5-10 mg/kg (intravenously; aqueous solution). […] The peripheral resistance, which under the effect of the endotoxin had fallen to 60.8±4.1% of the starting value that had been present prior to administering the endotoxin, rose to 80.8±5.1% of the starting value that had been present prior to administering the endotoxin (p<0.0001).

[2] = test system: anesthetized pigs given lipopolysaccharide (LPS) as a bolus; assay: Endotoxin (LPS) model in anesthetized pigs, LPS bolus; assay type: in vivo, pig; conditions: LPS 1 μg/kg bolus, n=5, LPS raised pressure from 30.6±0.7 to 67.2±6.0 mm Hg, compound 5 mg/kg intravenously, p<0.01
Source text: as §1
In another experimental approach performed on anesthetized pigs, 1 μg/kg of LPS was administered as a bolus (n=5). This led, within 15-20 min, to a dangerous increase in the systolic pulmonary arterial pressure from 30.6±0.7 mm Hg to 67.2±6.0 mm Hg.

## CNC(=S)NS(=O)(=O)c1cc(CCNC(=O)c2cc(Cl)ccc2OC)ccc1OCCOC [1-(5-(2-(5-chloro-2-methoxybenzamido)ethyl)-2-(2-methoxyethoxy)phenyl-sulfonyl)-3-methylthiourea sodium salt]
[1]; LPS 0.15 μg/kg/h continuous infusion, n=7, compound 5-10 mg/kg intravenously (aqueous solution) after 3.9 hours, p<0.001
  rise of peripheral mean arterial blood pressure: 19.6±3.2 mm Hg
[1]; LPS 0.15 μg/kg/h continuous infusion, n=7, compound 5-10 mg/kg intravenously after 3.9 hours, had fallen to 60.8±4.1% under endotoxin, p<0.0001
  peripheral resistance after administration: 80.8±5.1 % of the starting value
[1]; LPS model, infusion, total dose 5-10 mg/kg, seen already after a dose of 1-2.5 mg/kg had been infused
  effect when administered as an infusion: marked improvement
[2]
  systolic pulmonary arterial pressure after administration: 46.6±4.0 mm Hg
